# Data as given in the supplement of paper PMC4862054.
# What was measured:
# Details in all cases: incubation time: 72 h
# BT-549 [1] = test: normalised viability (% of control), CellTiter-Blue; higher = more viable cells (about 100 = DMSO control)
# Method in brief: (§1)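 The reported quantity is normalised viability at a single listed concentration of the series. Compound in 5 µl medium was pre-dispensed into 384-well plates and 20 µl of breast cancer cell suspension was added for 72 h. A 2 h, 37 °C CellTiter-Blue step (2.5 µl) preceded fluorescence reading at 560/590 nm, and plates were normalised to vehicle (100) and a positive kill control (0).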
# CAL-120 [2] = test: as above
# Method in brief: as §1
# CAL-51 [3] = test: as above
# Method in brief: as §1
# CAL-85-1 [4] = test: as above
# Method in brief: as §1
# DU-4475 [5] = test: as above
# Method in brief: as §1
# HCC1143 [6] = test: as above
# Method in brief: as §1
# HCC1599 [7] = test: as above
# Method in brief: as §1
# HCC1937 [8] = test: as above
# Method in brief: as §1
# Hs578T [9] = test: as above
# Method in brief: as §1
# MDA-MB-453 [10] = test: as above
# Method in brief: as §1
# MDA-MB-468 [11] = test: as above
# Method in brief: as §1
# MFM-223 [12] = test: as above
# Method in brief: as §1
# SK-BR-3 [13] = test: as above
# Method in brief: as §1
# BT-474 = test: drug sensitivity score (DSS), CellTiter-Blue viability (DSS (AUC-based score)); higher = stronger viability inhibition; extreme values may be limits of the assay
# Description: (§2)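 DSRT with the CellTiter-Blue (resazurin reduction) viability readout, fluorescence 560/590 nm, 72 h incubation. Plates were normalised to DMSO and benzethonium chloride controls. DSS is computed from the area under the fitted dose-response curve (5 or 9 concentrations).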
# BT-549 [14] = test: as above
# Description: as §2
# CAL-120 [15] = test: as above
# Description: as §2
# CAL-51 [16] = test: as above
# Description: as §2
# CAL-85-1 [17] = test: as above
# Description: as §2
# DU-4475 [18] = test: as above
# Description: as §2
# HCC1143 [19] = test: as above
# Description: as §2
# HCC1599 [20] = test: as above
# Description: as §2
# HCC1937 [21] = test: as above
# Description: as §2
# HDQ-P1 = test: as above
# Description: as §2
# Hs578T [22] = test: as above
# Description: as §2
# MDA-MB-436 = test: as above
# Description: as §2
# MDA-MB-453 [23] = test: as above
# Description: as §2
# MDA-MB-468 [24] = test: as above
# Description: as §2
# MFM-223 [25] = test: as above
# Description: as §2
# SK-BR-3 [26] = test: as above
# Description: as §2
compound,measurement,setting,value
CC(C)(C#N)c1cc(Cn2cncn2)cc(C(C)(C)C#N)c1 [Anastrozole],normalised viability,BT-549 [1]; 10000 nM,85.1%
same,normalised viability,CAL-120 [2]; 10000 nM,90.2%
same,normalised viability,CAL-51 [3]; 100 nM,111%
same,normalised viability,CAL-85-1 [4]; 100 nM,91.8%
same,normalised viability,DU-4475 [5]; 100 nM,98.7%
same,normalised viability,HCC1143 [6]; 10000 nM,80.5%
same,normalised viability,HCC1599 [7]; 10000 nM,104%
same,normalised viability,HCC1937 [8]; 10000 nM,90.9%
same,normalised viability,Hs578T [9]; 10000 nM,107%
same,normalised viability,MDA-MB-453 [10]; 100 nM,94.1%
same,normalised viability,MDA-MB-468 [11]; 10000 nM,95.2%
same,normalised viability,MFM-223 [12]; 10000 nM,90.5%
same,normalised viability,SK-BR-3 [13]; 10000 nM,102%
same,drug sensitivity score,BT-474,0
same,drug sensitivity score,BT-549 [14],0
same,drug sensitivity score,CAL-120 [15],0
same,drug sensitivity score,CAL-51 [16],0
same,drug sensitivity score,CAL-85-1 [17],0
same,drug sensitivity score,DU-4475 [18],0
same,drug sensitivity score,HCC1143 [19],0
same,drug sensitivity score,HCC1599 [20],0
same,drug sensitivity score,HCC1937 [21],0
same,drug sensitivity score,HDQ-P1,0
same,drug sensitivity score,Hs578T [22],0
same,drug sensitivity score,MDA-MB-436,0
same,drug sensitivity score,MDA-MB-453 [23],0
same,drug sensitivity score,MDA-MB-468 [24],0
same,drug sensitivity score,MFM-223 [25],0
same,drug sensitivity score,SK-BR-3 [26],0
O=C1NC(=O)[C@@H](c2cn3c4c(cccc24)CCC3)[C@@H]1c1c[nH]c2ccccc12 [Tivantinib],normalised viability,BT-549 [1]; 1000 nM,26.8%
same,normalised viability,CAL-120 [2]; 1000 nM,29.7%
same,normalised viability,CAL-51 [3]; 10 nM,108%
same,normalised viability,CAL-85-1 [4]; 10 nM,104%
same,normalised viability,DU-4475 [5]; 10 nM,82.9%
same,normalised viability,HCC1143 [6]; 1000 nM,55.2%
same,normalised viability,HCC1599 [7]; 1000 nM,79%
same,normalised viability,HCC1937 [8]; 1000 nM,30.4%
same,normalised viability,Hs578T [9]; 1000 nM,19.9%
same,normalised viability,MDA-MB-453 [10]; 10 nM,107%
same,normalised viability,MDA-MB-468 [11]; 1000 nM,42.4%
same,normalised viability,MFM-223 [12]; 1000 nM,57.8%
same,normalised viability,SK-BR-3 [13]; 1000 nM,21.5%
same,drug sensitivity score,BT-474,1.07
same,drug sensitivity score,BT-549 [14],4.05
same,drug sensitivity score,CAL-120 [15],4.4
same,drug sensitivity score,CAL-51 [16],2.15
same,drug sensitivity score,CAL-85-1 [17],4.04
same,drug sensitivity score,DU-4475 [18],1.35
same,drug sensitivity score,HCC1143 [19],0
same,drug sensitivity score,HCC1599 [20],0.607
same,drug sensitivity score,HCC1937 [21],8.31
same,drug sensitivity score,HDQ-P1,0
same,drug sensitivity score,Hs578T [22],2.65
same,drug sensitivity score,MDA-MB-436,7.87
same,drug sensitivity score,MDA-MB-453 [23],6.08
same,drug sensitivity score,MDA-MB-468 [24],1.21
same,drug sensitivity score,MFM-223 [25],0
same,drug sensitivity score,SK-BR-3 [26],2.61
Cc1cc2c(C(C)C)c(O)c(O)c(C=O)c2c(O)c1-c1c(C)cc2c(C(C)C)c(O)c(O)c(C=O)c2c1O [Gossypol],normalised viability,BT-549 [1]; 100000 nM,2.19%
same,normalised viability,CAL-120 [2]; 100000 nM,3.6%
same,normalised viability,CAL-51 [3]; 1000 nM,92.1%
same,normalised viability,CAL-85-1 [4]; 1000 nM,87.7%
same,normalised viability,DU-4475 [5]; 1000 nM,113%
same,normalised viability,HCC1143 [6]; 100000 nM,15.7%
same,normalised viability,HCC1599 [7]; 100000 nM,4.74%
same,normalised viability,HCC1937 [8]; 100000 nM,6.06%
same,normalised viability,Hs578T [9]; 100000 nM,1.54%
same,normalised viability,MDA-MB-453 [10]; 1000 nM,105%
same,normalised viability,MDA-MB-468 [11]; 100000 nM,2.31%
same,normalised viability,MFM-223 [12]; 100000 nM,4.14%
same,normalised viability,SK-BR-3 [13]; 100000 nM,1.49%
